Laboratory results published in patent US10806729B2, “Quinoline derivatives for use in the treatment or prevention of viral infection” (ABIVAX, priority 2015, dated 2020).

Assays:
HIV-1 strain YU2 = experiment: HIV-1 p24 production in infected monocyte derived macrophages (ELISA); type: cell-based; conditions: Human immunodeficiency virus 1, Primary macrophage; primary macrophages infected with Yu-2, at 0.1 μM; read-out: inhibition levels of virus replication (p24)
Text: FIG. 1. Potency of quinoline derivatives to inhibit HIV-1 production in PBMC- and macrophages-infected cells. […] Each point represents 6 donors. B) HIV-1 strain YU2 was used to infect triplicate of monocyte derived-macrophages from different donors in the absence or presence of increasing concentrations of Compound 22. […] Each point represents 8 donors. To generate monocyte derived macrophages (MDMs), monocytes were isolated using CD14 microbeads (catalog no. 130-050-201; Miltenyi) and cultured in X-VIVO10 medium (Lonza) supplemented with GM-CSF 1000 U/ml and M-CSF 100 ng/ml for 6 days. Monocytes were seeded at a cell count of 50,000 cells per well in a 96 well plate. After 6 days medium was replaced with X-VIVO10 w/o Cytokines. After 2 days Macrophages were treated with Compound 22 and/or its N-glucuronide metabolite o/n and next day infected with Yu-2 virus for 6 hrs, washed with PBS and cultured in medium containing the compounds for 12 days. Supernatant for p24 Elisa was collected 2 times a week. Cells were treated with 0.01 μM up to 30 μM and p24 antigen levels were monitored in culture supernatant over a 12 day period. Cell culture supernatant HIV p24 titration was performed by ELISA with Ingen Innotest kit (Ingen Ref 80564) according to the manufacturer's instructions.

HIV-1 = conditions: human PBMCs, increasing drug pressure
Description: Resistance to Compound 22 was tested on human PBMCs and compared to current therapies. […] Various classes of antiviral agents can affect the life cycle of HIV-1 in different manners. […] The selection of drug resistant mutants in vitro can be readily accomplished by maintaining the virus in a state of sub-optimal growth, regulated by slowly increasing the amount of drug pressure applied. This technique mimics the consequences of drug therapy in patients. Therefore, in this way, novel compounds can be assessed for their selection profile in order to evaluate the likelihood of emergence of HIV-1 drug resistance in future clinical trials. In addition, combinations of drugs can be investigated in the same manner.

**Q.** For `O=C(O)[C@H]1O[C@@H](N(c2ccc(OC(F)(F)F)cc2)c2ccc3cccc(Cl)c3n2)[C@H](O)[C@@H](O)[C@@H]1O` [N-glucuronide metabolite], which inhibition at 0.1 µM (HIV-1 strain YU2) is on record?
**A.** ≤ 90%

**Q.** Which “Time of Selection (weeks)” value (HIV-1) does the source give for `Cc1ccnc2c1NC(=O)c1cccnc1N2C1CC1` [Nevirapine, reference compound] here?
**A.** 3 weeks

**Q.** Which “Time of Selection (weeks)” value (HIV-1) does the source give for `C[C@H](Cn1cnc2c(N)ncnc21)OCP(=O)(O)O` [Tenofovir, reference compound] here?
**A.** 12 weeks
